Series [1] has as its system total cholesterol. The series is described as follows: in vivo screen designated APCC (total cholesterol in rats on PCC diet). The arrangement: species or system male Sprague-Dawley rats. The following applies: Rattus norvegicus, PCC diet overnight, read-out: APCC (%ΔTC): percent change in total cholesterol between control and drug-treated animals. An excerpt: In one in vivo screen designated APCC, male Sprague-Dawley rats (200 to 225 g) were randomly divided into treatment groups and dosed at 4 PM with either vehicle (CMC/Tween) or suspensions of compounds in vehicle. The normal chow diet was then replaced with the PCC diet (5.5% peanut oil, 1.5% cholesterol, and 0.5% cholic acid). The rats consumed this diet ad libitum during the night and were sacrificed at 8 AM to obtain blood samples for cholesterol analysis using standard procedures. Statistical differences between mean cholesterol values for the same vehicle were determined using analysis of variance followed by Fisher's least significant test. The results of this trial for representative compounds of the present invention appear in Table II wherein percent change means the difference in total cholesterol between control, and the drug-treated animals.

Series [2] relates to adrenal gland. The series is described as follows: in vivo toxicity screen in guinea pigs (adrenal histopathology). The conditions noted are these: 100 mg/kg daily by gavage, 2 weeks; for adrenal toxicity class: oleic acid vehicle. More on the design: species or system male guinea pigs of the Hartley strain. How it is done:
The nontoxic nature of representative compounds of the present invention was measured and compared against previously disclosed tetrazole urea ACAT inhibitors using an in vivo toxicity screen developed by Dominick, et al., 1993. Male guinea pigs of the Hartley strain (450-500 g) were obtained from Charles River and randomly divided into treatment groups. They were fed standard guinea pig chow ad libitum and dosed daily (AM) by gavage (100 mg/kg). The test compounds were dissolved or suspended in an oleic acid vehicle to facilitate absorption. After 2 weeks the animals were sacrificed by CO2 asphyxiation in the nonfasted state 16 hours after the last dose. Adrenal glands were weighed, fixed in 10% formalin, processed by routine paraffin techniques, sectioned, and then stained with hematoxylin and eosin for light microscopy. Toxicity was defined by the incidence, severity, and complexity of adrenal histopathologic alterations in the zona fasciculata (e.g., adrenal cortical atrophy, increased coarse vacuolation, single cell necrosis, inflammatory cell infiltrates, mineralization/ectopic bone formation, and increased cytoplasmic eosinophilia).

On to `CC(C)c1cccc(C(C)C)c1NC(=O)N(c1ccccc1)c1nnn(CCCCCCCCOC2CCCCO2)n1` (racemic) [Example 10, (±)N'-[2,6-bis(1-methylethyl)phenyl]-N-phenyl-N-[2-[8-[(tetrahydro-2H-pyran-2-yl)oxy]octyl]-2H-tetrazol-5-yl]-urea], for which, in series [1], the change in vivo at 30 mg/kg is -42%.

Take `COc1cc(OC)c(NC(=O)N(c2ccccc2)c2nnn(CCCCCCCCOC3CCCCO3)n2)c(OC)c1` (racemic) [Example 11, (±)N-phenyl-N-[2-[8-[(tetrahydro-2H-pyran-2-yl)oxy]octyl]-2H-tetrazol-5-yl]-N'-(2,4,6-trimethoxyphenyl)-urea]: the change in vivo at 30 mg/kg in series [1] was -50%.

Turning to `O=C(Nc1ccc(F)cc1F)N(c1ccccc1)c1nnn(CCCCCCCCOC2CCCCO2)n1` (racemic) [Example 12, (±)N'-(2,4-difluorophenyl)-N-phenyl-N-[2-[8-[(tetrahydro-2H-pyran-2-yl)oxy]octyl]-2H-tetrazol-5-yl]-urea], the change in vivo at 30 mg/kg in series [1] was -37%.

Take `CCCCCCCCCCCCn1nnc(N(C(=O)Nc2c(C(C)C)cccc2C(C)C)c2ccccc2)n1` [Example 1, N'-[2,6-Bis(1-methylethyl)phenyl]-N-(2-dodecyl-2H-tetrazol-5-yl)-N-phenyl-urea]: in series [1], the change in vivo at 30 mg/kg is -52%.

`CCCCCCCCCCCCn1nnc(N(C(=O)Nc2c(OC)cc(OC)cc2OC)c2ccccc2)n1` [Example 2, N-(2-dodecyl-2H-tetrazol-5-yl)-N-phenyl-N'-(2,4,6-trimethoxyphenyl)-urea]: the change in vivo at 30 mg/kg in series [1] was -74%.

On to `CCCCCCCCCCCCn1nnc(N(C(=O)Nc2ccc(F)cc2F)c2ccccc2)n1` [Example 3, N'-(2,4-Difluorophenyl)-N-(2-dodecyl-2H-tetrazol-5-yl)-N-phenyl-urea], for which the change in vivo at 30 mg/kg in series [1] was -63%.

Take `CCCCCCCCCCCCn1nnc(N(C(=O)Nc2c(C(C)C)cccc2C(C)C)C2CCCCC2)n1` [Example 4, N'-[2,6-bis(1-methylethyl)phenyl]-N-cyclohexyl-N-(2-dodecyl-2H-tetrazol-5-yl)-urea]: the change in vivo at 30 mg/kg in series [1] was -10%.

As for `CCCCCCCCCCCCn1nnc(N(C(=O)Nc2c(OC)cc(OC)cc2OC)C2CCCCC2)n1` [Example 5, N-cyclohexyl-N-(2-dodecyl-2H-tetrazol-5-yl)-N'-(2,4,6-trimethoxyphenyl)-urea], in series [1], the change in vivo at 30 mg/kg was -67%. Also, in series [2], the “drug related adrenal changes” value is “no drug related adrenal changes” and the adrenal toxicity class entry is reported as “nontoxic to the adrenal gland”.

On to `CCCCCCCCCCCCn1nnc(N(C(=O)Nc2ccc(F)cc2F)C2CCCCC2)n1` [Example 6, N-Cyclohexyl-N'-(2,4-difluorophenyl)-N-(2-dodecyl-2H-tetrazol-5-yl)-urea], for which the change in vivo at 30 mg/kg in series [1] was -33%.

Consider `CCCCCCCCCCCCCCn1nnc(N(C(=O)Nc2c(OC)cc(OC)cc2OC)c2ccccc2)n1` [Example 7, N-phenyl-N-(2-tetradecyl-2H-tetrazol-5-yl)-N'-(2,4,6-trimethoxyphenyl)-urea], for which the change in vivo at 30 mg/kg in series [1] is -22%.

With `CCCCCn1nnc(N(C(=O)Nc2c(OC)cc(OC)cc2OC)c2ccccc2)n1` [Example 8, N-(2-pentyl-2H-tetrazol-5-yl)-N-phenyl-N'-(2,4,6-trimethoxyphenyl)-urea], the change in vivo at 30 mg/kg in series [1] is -43%.

For `CCCCCCCCCCCCn1nnc(CN(Cc2ccccc2)C(=O)Nc2c(OC)cc(OC)cc2OC)n1` [Example 9, N-(2-Dodecyl-2H-tetrazol-5-ylmethyl)-N-(phenylmethyl)-N'-(2,4,6-trimethoxyphenyl)-urea], the change in vivo at 30 mg/kg in series [1] is -49%.

As to `CC(C)c1cccc(C(C)C)c1NC(=O)N(c1ccccc1)c1nnn(CCCCCCCCO)n1` [Example 13, N'-[2,6-Bis(1-methylethyl)phenyl]-N-[2-(8-hydroxyoctyl)-2H-tetrazol-5-yl]-N-phenyl-urea], the change in vivo at 30 mg/kg in series [1] was -17%.

Regarding `COc1cc(OC)c(NC(=O)N(c2ccccc2)c2nnn(CCCCCCCCO)n2)c(OC)c1` [Example 14, N-[2-(8-hydroxyoctyl)-2H-tetrazol-5-yl]-N-phenyl-N'-(2,4,6-trimethoxyphenyl)-urea], the change in vivo at 30 mg/kg in series [1] was -15%.

Regarding `CC(C)c1cccc(C(C)C)c1NC(=O)N(c1ccccc1)c1nnn(CCCCCCCC=O)n1` [Example 15, N'-[2,6-bis(1-methylethyl)phenyl]-N-[2-(8-oxooctyl)-2H-tetrazol-5-yl]-N-phenyl-urea], in series [1], the change in vivo at 30 mg/kg was -29%.

Consider `COc1cc(OC)c(NC(=O)N(c2ccccc2)c2nnn(CCCCCCCC=O)n2)c(OC)c1` [Example 16, N-[2-(8-oxooctyl)-2H-tetrazol-5-yl]-N-phenyl-N'-(2,4,6-trimethoxyphenyl)-urea], for which, in series [1], the change in vivo at 30 mg/kg is -8%.

As for `CCN(CC)CCCCCCCCn1nnc(N(C(=O)Nc2c(C(C)C)cccc2C(C)C)c2ccccc2)n1` [Example 17, N'-[2,6-bis(1-methylethyl)phenyl]-N-[2-[8-(diethylamino)octyl]-2H-tetrazol-5-yl]-N-phenyl-urea], the change in vivo at 30 mg/kg in series [1] is -30%.

`CCCCCCCCCCCCn1nnc(NC(=O)Nc2c(C(C)C)cccc2C(C)C)n1` [N-[2,6-bis(1-methylethyl)-phenyl]-N'-(2-dodecyl-2H-tetrazol-5-yl)-urea]: in series [2], the “cytotoxic zonal atrophy of the zona fasciculata (treated animals affected)” value is 3/6, the “increased coarse vacuoles (animals affected)” value is listed as 5/6, the “inflammatory cell infiltrates (animals affected)” value is on record as 2/6 and the “necrosis of the adrenal cortex (animals affected)” value is 2/6. In addition, the adrenal toxicity class result in series [2] is on record as “highly toxic to the adrenal gland”.

For the compound `CCCCCCCCCCCCCn1nnc(NC(=O)Nc2c(C(C)C)cccc2C(C)C)n1` [N-[2,6-bis(1-methylethyl)-phenyl]-N'-(2-tridecyl-2H-tetrazol-5-yl)-urea], in series [2], the “cytotoxic zonal atrophy of the zona fasciculata (treated animals affected)” value is recorded as 4/6, the “increased coarse vacuoles (animals affected)” value is on record as 5/6, the “inflammatory cell infiltrates (animals affected)” value is recorded as 2/6 and the “necrosis of the adrenal cortex (animals affected)” value is 3/6. Also, the adrenal toxicity class result in series [2] is “highly toxic to the adrenal gland”.

The record behind these values is patent publication US5362744A, “Tetrazole-substituted urea acat inhibitors” (Warner-Lambert Company, priority 1993, dated 1994).
